Data on two compounds can be found in US9782516B2, “Tissue adhesive coatings for drug coated balloon” (ABBOTT CARDIOVASCULAR SYSTEMS INC., priority 2013, dated 2017).

A short description of data set [1]: Drug transfer efficiency of drug coated balloons (Table 1). The format is in vivo. The settings on record: balloon 3 × 12 mm, coronary, 20% overstretch, stent present, inflation 30 s, time point 30 minutes. The method, then: For purpose of explanation, and not limitation, of the disclosed subject matter, reference is now made to a comparative study between paclitaxel and zotarolimus.
(§1) With a stent on a coronary balloon, the percent of dose in the vessel from a pure zotarolimus coated balloon was measured at about 30 minutes, 1 day, and 7 days.

For data set [2] the following is noted: in vivo.
Data set [3] in a line: Percent of dose in the vessel from pure zotarolimus coated coronary balloon with stent (FIG. 2). The format is in vivo. The method, then: FIG. 2 is a graph illustrating percent transfer efficiency as a function of time for pure zotarolimus coatings on a zotarolimus coated balloon.
as §1

A further data set relates to whole blood. Kind of data set: Acute thrombogenicity of stents in whole blood via the Chandler Loop (FIG. 5). The settings on record: drug coated stents in whole blood; compared to zotarolimus.
A short description of data set [4]: Percent tissue uptake from paclitaxel coated balloon (FIG. 3). The format is in vivo. The conditions noted are these: porcine coronary arteries, day 1 (24 hours).

Molecules are shown by their SMILES.

Consider `CO[C@H]1C[C@@H]2CC[C@@H](C)[C@@](O)(O2)C(=O)C(=O)N2CCCC[C@H]2C(=O)O[C@H]([C@H](C)C[C@@H]2CC[C@H](n3cnnn3)[C@H](OC)C2)CC(=O)[C@H](C)/C=C(\C)[C@@H](O)[C@@H](OC)C(=O)[C@H](C)C[C@H](C)/C=C/C=C/C=C/1C` [Pure Zotarolimus, zotarolimus], for which the values for the Percent transfer efficiency in data set [1] (dose 104 μg/cm^2) and in data set [1] (dose 576 μg/cm^2) were 4.7 and 5.2, respectively. In data set [2], the “histology evidence of coating fragments adhering to a vessel wall” value is “no apparent histology evidence”. For the same compound, the “percent drug in tissue over time” value in data set [3] (coronary balloon with stent, measured at about 30 minutes, 1 day and 7 days) was “rapid decrease in the percent drug in tissue”. Also, the tissue uptake result in data set [3] (pure zotarolimus coated coronary balloon with stent, 652 μg dose, day 1 (24 hours)) is listed as “about 0.56%”.

`CC(=O)O[C@H]1C(=O)[C@@]2(C)[C@H]([C@H](OC(=O)c3ccccc3)[C@]3(O)C[C@H](OC(=O)[C@H](O)[C@@H](NC(=O)c4ccccc4)c4ccccc4)C(C)=C1C3(C)C)[C@]1(OC(C)=O)CO[C@@H]1C[C@@H]2O` [paclitaxel]: the “acute thrombogenicity as measured by lactate dehydrogenase (LDH)” value in the data set on whole blood was “more thrombogenic”. The tissue uptake result in data set [4] is on record as “about 2%”.
